Converted amounts (≈) assume the structure as drawn. Where two headings read alike, the source gives them in different places.
Columns and labels:
HIV-1 (HTLV-IIIB) = assay: Anti-retrovirus activity: inhibition of HIV-1-induced cytopathogenicity in MT-4 cells; type: cell-based; conditions: for EC50: Human immunodeficiency virus 1, IIIB, MT4, 120 h; for S.I. (Selectivity Index): CC50/EC50, MT-4 cells
Description: The viruses used were moloney murine sarcoma virus (MSV), HIV-1 (strain HTLV-IIIB, kindly provided by R. C. Gallo and M. Popovic, National Cancer Institute, Bethesda, Md.), HIV-2 (strain LAV-2(ROD)), kindly provided by L. Montagnier (Pasteur Institute, Paris, France), simian immunodeficiency virus (SIV) (strain SIVMAC251, kindly provided by C. Bruck, RIT-Smith-Kline, Rixensart, Belgium).
(§1) In order to evaluate the inhibitory effects against retrovirus-induced cytopathogenicity in MT-4cells, said cells (5×10^5 cells/ml) were suspended in fresh culture medium and infected with HIV-1, HIV-2 or SIOV at 100 times the cell culture infective dose-50 (CCID50) per ml cell suspension (1 CCID50 being the dose infective for 50% of the cell cultures). Then, 100 μl of the infected cell suspension were transferred to microplate wells, mixed with 100 μl of the appropriate dilutions of the test compounds, and further incubated at 37° C. After 5 days, the number of viable cells was determined in a blood cell-counting chamber by trypan blue staining for both virus-infected and mock-infected cell cultures.

in vitro = conditions: human, mt-4 cells
Method: as §1

[1] = Partition coefficient (Pa) between 1-octanol and 10 mM potassium phosphate buffer; type: physicochemical; conditions: 1-octanol / 10 mM potassium phosphate buffer, pH 7.5, 50 μM; for logD at 50 µM: room temperature
Method: Partition of the test compounds between 1-octanol (Merck, Darmstadt, Germany) and 10 mM potassium phosphate buffer, pH, 7.5 (Merck), was measured as described in Balzarini et al., Biochem, Biophys. Res. Commun. 158: 413-422 (1989). Briefly, a 50 μM concentration of the test compound in potassium phosphate buffer was thoroughly mixed with an equal volume of 1-octanol for 30 min at room temperature. Then, the mixture was further equilibrated at room temperature and UV absorption was measured for the aqueous and alcoholic liquid phases. The partition coefficient (Pa) was calculated as the ratio of the compound concentration present in the 1-octanol phase to the compound concentration present in the aqueous phase.

MT-4 cells = assay: Cytotoxicity for mock-infected MT-4 cells; conditions: for cytotoxicity to MT-4 cells (in words): at 100 μg/ml
Method: as §1

MT-4 cell DNA synthesis = assay: Incorporation of radiolabeled precursors into MT-4 cell DNA; type: cell-based; conditions: Homo sapiens, MT4, MT-4 cells, 20 to 24 hr
Description: (§2) The radiolabeled nucleosides [methyl-^3 H]dThd (specific radioactivity: 40 Ci/mmol), [5-^3 H]dUrd (specific radioactivity: 27 Ci/mmol), [5-^3 H]dCyc (specific radioactivity: 18.2 Ci/mmol) and the radiolabeled amino acid L-[4,5-^3 H]leucine (specific radioactivity: 52 Ci/mmol were derived from the Radiochemcial Centre (Amersham, England); [5-^3 H]Urd (specific radioactivity: 21 Ci/mmol) and [5-^3 H]Cyd (specific radioactivity: 21 Ci/mmol) and were obtained from Moravek Biochemicals Inc. (Brea, Calif.)
(§3) The incorporation of [methyl-^3 H]dThd, [5-^3 H]dUrd, [5-^3 H]dCyd, [5-^3 H]Urd, [5-^3 H]Cyd and L-[4,5-^3 H]1eu into TCA-insoluble MT-4 cell material was measured in wells of a 96-well microtiter plate (Falcon-3072, Becton-Dickinson, New Jersey). To each well were added 10^5 MT-4 cells, 0.25 μCi of the radiolabeled precursor and a given amount of test compound. The cells were allowed to proliferate for 20 to 24 hr at 37° C. in a humidified, CO2 -controlled atmosphere. At the end of this incubation period, the contents of the wells (200 μl) were brought onto 25-mm glass fiber filters (type A/E, Gelman Instrument Company, Ann Arbor, Mich.), and mounted on a Millipore 3025 sampling manifold apparatus. The filters were washed twice with 2 ml and 5 ml cold NaCl/Pi (phosphte-buffered saline), twice with 2 and 5 ml cold 10% trichloroacetic acid (TCA), twice with 5 and 7.5 ml cold 5% TCA, and twice with 1 ml cold ethanol.

MT-4 cell RNA synthesis = assay: Incorporation of radiolabeled precursors into MT-4 cell RNA; type: cell-based; conditions: Homo sapiens, MT4, MT-4 cells, 20 to 24 hr
Description: as §2, §3

[2] = test system: MT-4 cell protein synthesis; assay: Incorporation of radiolabeled leucine into MT-4 cell protein; type: cell-based; conditions: Homo sapiens, MT4; MT-4 cells, 20 to 24 hr; read-out: IC50, L-[4,5-3H]leucine incorporation
Description: as §2, §3

[3] = test system: MT-4 cell DNA, RNA or protein synthesis; assay: Incorporation of radiolabeled DNA, RNA or protein precursors into TCA-insoluble MT-4 cell material (summary in words); type: cell-based; conditions: for inhibition of incorporation of dThd, dUrd, dCyd, Urd, Cyd or leucine: at 100 μg/ml
Description: as §2, §3

HIV-1 = assay: Antiviral activity upon delayed addition to HIV-1-infected MT-4 cells; type: cell-based
Method: as §1
Mt-4 cells were suspended in culture medium, infected with HIV-1 and brought into microplate wells as described above. […] After 5 days, the number of viable cells was determined and the EC50 and CC50 values for the test compounds were defined as described in example 1.

HIV-2 strain (EHO) = assay: Activity against HIV-2 strain EHO; type: cell-based
[4] = read-out: IC50, [5-3H]dCyd incorporation
[5] = read-out: IC50, [5-3H]dUrd incorporation
[6] = read-out: IC50, [methyl-3H]dThd incorporation
[7] = read-out: IC50, [5-3H]Cyd incorporation
[8] = read-out: IC50, [5-3H]Urd incorporation

Compound | CC50 at 120 h (in vitro) | logD at 50 µM [1] | EC50 (HIV-1 (HTLV-IIIB)) | S.I. (Selectivity Index) (HIV-1 (HTLV-IIIB); Table 1) | presence in the n-octanol phase compared to the aqueous phase [1] | further results
Cc1cn([C@@H]2O[C@H](CO)[C@@]3(OS(=O)(=O)C=C3N)[C@H]2O)c(=O)[nH]c1=O [Compound 1] | > 100 µg/mL | -0.932 |  |  |  | EC50 (HIV-1 (HTLV-IIIB); Table 1, HIV-1 in MT-4 cells, 5 days, read-out: EC50): > 100 µg/mL
Cc1cn([C@@H]2O[C@H](CO)[C@@]3(OS(=O)(=O)C=C3N)[C@H]2O[Si](C)(C)C(C)(C)C)c(=O)[nH]c1=O [Compound 2] | 106 µg/mL (≈ 223 µM) | > 1.3 | > 40 µg/mL | < 2,5 | more than 95% | 
Cc1cn([C@@H]2O[C@H](CO[Si](C)(C)C(C)(C)C)[C@@]3(OS(=O)(=O)C=C3N)[C@H]2O)c(=O)[nH]c1=O [Compound 3] | 45 µg/mL (≈ 94.6 µM) | > 1.3 | > 20 µg/mL | < 2 | more than 95% | 
Cc1cn([C@@H]2O[C@H](COC(=O)c3ccccc3)[C@@]3(OS(=O)(=O)C=C3N)[C@H]2O[Si](C)(C)C(C)(C)C)c(=O)[nH]c1=O [Compound 4] | 20 µg/mL (≈ 34.5 µM) | > 1.3 | > 8 µg/mL | < 2,5 | more than 95% | 
C=CCn1c(=O)c(C)cn([C@@H]2O[C@H](CO[Si](C)(C)C(C)(C)C)[C@@]3(OS(=O)(=O)C=C3N)[C@H]2O[Si](C)(C)C(C)(C)C)c1=O [Compound 8, {1-[2', 5'-Bis-O-(tert-butyldimethylsilyl)-β-D-ribofuranosyl]-3-N-allyl-thymine}-3'-spiro-5"{4"-amino-1", 2"-oxathiole-2", 2"-dioxide}] | > 200 µg/mL | > 1.3 | 0.141 µg/mL (≈ 0.224 µM) | > 1418 | more than 95% | cytotoxicity to MT-4 cells (in words) (MT-4 cells): not cytotoxic; IC50 (MT-4 cell DNA synthesis; [4]): > 100 µg/mL; IC50 (MT-4 cell DNA synthesis; [5]): > 100 µg/mL; IC50 (MT-4 cell DNA synthesis; [6]): > 100 µg/mL; IC50 (MT-4 cell RNA synthesis; [7]): > 100 µg/mL; IC50 (MT-4 cell RNA synthesis; [8]): > 100 µg/mL; IC50 [2]: > 100 µg/mL; inhibition of incorporation of dThd, dUrd, dCyd, Urd, Cyd or leucine [3]: did not markedly inhibit
CCc1cn([C@@H]2O[C@H](CO[Si](C)(C)C(C)(C)C)[C@@]3(OS(=O)(=O)C=C3N)[C@H]2O[Si](C)(C)C(C)(C)C)c(=O)[nH]c1=O [Compound 10, {1-[2', 5'-Bis-O-(tert-butyldimethylsilyl)-β-D-ribofuranosyl]-5-ethyl-uracil}-3'-spiro-5"-{4"-amino-1",2"-oxathiole-2",2"-dioxide}] | 3.2 µg/mL (≈ 5.3 µM) |  | 0.038 µg/mL (≈ 0.0629 µM) | 82 |  | decrease of antiviral activity on delayed addition (HIV-1; addition delayed by 17-24 hours, data not shown): 10 fold; antiviral activity on delayed addition (HIV-1; addition delayed by 41 to 48 hours): almost totally lost
CC(C)(C)[Si](C)(C)OC[C@H]1O[C@@H](n2ccc(=O)[nH]c2=O)[C@H](O[Si](C)(C)C(C)(C)C)[C@]12OS(=O)(=O)C=C2N [Compound 11, {1-[2', 5'-Bis-O-(tert-butyldimethylsilyl)-β-D-ribofuranosyl]uracil}-3'-spiro-5"-{4"-amino-1", 2"-oxathiole-2", 2"-dioxide}] | 8.3 µg/mL (≈ 14.4 µM) | > 1.3 | 0.114 µg/mL (≈ 0.198 µM) | 73 | more than 95% | inhibition of MT-4 cell proliferation (in words) (MT-4 cells): inhibitory to MT-4 cell proliferation; cytotoxicity to MT-4 cells (in words) (MT-4 cells): not cytotoxic; IC50 (MT-4 cell DNA synthesis; [4]): 18 µg/mL (≈ 31.3 µM); IC50 (MT-4 cell DNA synthesis; [5]): 12 µg/mL (≈ 20.8 µM); IC50 (MT-4 cell DNA synthesis; [6]): 38 µg/mL (≈ 66 µM); IC50 (MT-4 cell RNA synthesis; [7]): 11 µg/mL (≈ 19.1 µM); IC50 (MT-4 cell RNA synthesis; [8]): 11 µg/mL (≈ 19.1 µM); IC50 [2]: 14 µg/mL (≈ 24.3 µM); inhibition of incorporation of precursors relative to inhibition of MT-4 cell proliferation ([3]; Table 2 discussion): equally inhibitory; preferential inhibition of incorporation of one precursor over the others ([3]; Table 2 discussion): neither; inhibition of incorporation of dThd, dUrd, dCyd, Urd, Cyd or leucine [3]: did not markedly inhibit
CC(C)(C)[Si](C)(C)OC[C@H]1O[C@@H](n2cc(Br)c(=O)[nH]c2=O)[C@H](O[Si](C)(C)C(C)(C)C)[C@]12OS(=O)(=O)C=C2N [Compound 12] | 2.35 µg/mL (≈ 3.59 µM) |  | 0.206 µg/mL (≈ 0.315 µM) | 11 |  | activity against HIV-2 strain (EHO) (HIV-2 strain (EHO)): inactive
C=CCn1c(=O)ccn([C@@H]2O[C@H](CO[Si](C)(C)C(C)(C)C)[C@@]3(OS(=O)(=O)C=C3N)[C@H]2O[Si](C)(C)C(C)(C)C)c1=O [Compound 13, {1-[2', 5'-Bis-O-(tert-butyldimethylsilyl)-62 -D-ribofuranosyl]-3-N-allyl-uracil}-3'-spiro-5"-{4"-amino-1", 2"-oxathiole-2", 2"-dioxide}] | 5.31 µg/mL (≈ 8.62 µM) |  | 0.364 µg/mL (≈ 0.591 µM) | 15 |  | 
CC(=O)Nc1ccn([C@@H]2O[C@H](CO[Si](C)(C)C(C)(C)C)[C@@]3(OS(=O)(=O)C=C3N)[C@H]2O[Si](C)(C)C(C)(C)C)c(=O)n1 [Compound 15, {4-N-Acetyl-1-[2', 5'-bis-O-(tert-butyldimethylsilyl)-β-D-ribofuranosyl]cytosine}-3'-spiro-5"-{4"-amino-1",2"-oxathiole-2",2"-dioxide}] | 7.5 µg/mL (≈ 12.2 µM) | > 1.3 | 0.097 µg/mL (≈ 0.157 µM) | 77 | more than 95% | 
CC(C)(C)[Si](C)(C)OC[C@H]1O[C@@H](n2cnc3c(N)ncnc32)[C@H](O[Si](C)(C)C(C)(C)C)[C@]12OS(=O)(=O)C=C2N [Compound 17] | 7.3 µg/mL (≈ 12.2 µM) |  | 0.162 µg/mL (≈ 0.271 µM) | 45 |  | activity against HIV-2 strain (EHO) (HIV-2 strain (EHO)): inactive

— patent publication US5527900A, “N3-alkyl-2',5'-0-silylated-3'-spiro-thymidine derivatives” (Stitching Rega VZW, priority 1991, dated 1996)
